What was measured:
Settings in all cases: 72 h
Caco-2 [1] = assay: cell viability relative to DMSO; higher = less toxic
Calu-3 [2] = assay: as above
HepG2 [3] = assay: as above
U2OS [4] = assay: as above
Vero E6 [5] = assay: as above
Caco-2 [6] = assay: relative viability EC50 (midpoint between 100% and the lowest measured viability); higher = less toxic
Calu-3 [7] = assay: as above
U2OS [8] = assay: as above
Vero E6 [9] = assay: as above
Caco-2 [10] = assay: drug sensitivity score (DSS) for viability; higher = more toxic; extreme values may be limits of the assay
Calu-3 [11] = assay: as above
HepG2 [12] = assay: as above
U2OS [13] = assay: as above
Vero E6 [14] = assay: as above
HepG2 [15] = assay: relative viability EC50 (midpoint between 100% and the lowest measured viability); higher = less toxic

Row | SMILES | cell viability (Caco-2 [1]; 1 nM) | cell viability (Caco-2 [1]; 10 nM) | cell viability (Caco-2 [1]; 100 nM) | cell viability (Caco-2 [1]; 1000 nM) | cell viability (Caco-2 [1]; 10000 nM) | cell viability (Calu-3 [2]; 1 nM) | cell viability (Calu-3 [2]; 10 nM) | cell viability (Calu-3 [2]; 100 nM) | cell viability (Calu-3 [2]; 1000 nM) | cell viability (Calu-3 [2]; 10000 nM) | cell viability (HepG2 [3]; 1 nM) | cell viability (HepG2 [3]; 10 nM) | cell viability (HepG2 [3]; 100 nM) | cell viability (HepG2 [3]; 1000 nM) | cell viability (HepG2 [3]; 10000 nM) | cell viability (U2OS [4]; 1 nM) | cell viability (U2OS [4]; 10 nM) | cell viability (U2OS [4]; 100 nM) | cell viability (U2OS [4]; 1000 nM) | cell viability (U2OS [4]; 10000 nM) | cell viability (Vero E6 [5]; 1 nM) | cell viability (Vero E6 [5]; 10 nM) | cell viability (Vero E6 [5]; 100 nM) | cell viability (Vero E6 [5]; 1000 nM) | cell viability (Vero E6 [5]; 10000 nM) | relative viability EC50 (Caco-2 [6]) | relative viability EC50 (Calu-3 [7]) | relative viability EC50 (U2OS [8]) | relative viability EC50 (Vero E6 [9]) | drug sensitivity score (Caco-2 [10]) | drug sensitivity score (Calu-3 [11]) | drug sensitivity score (HepG2 [12]) | drug sensitivity score (U2OS [13]) | drug sensitivity score (Vero E6 [14]) | relative viability EC50 (HepG2 [15])
1 | C[C@H](c1ccc2ccc(OC3CCC(C(F)(F)F)CC3)c(C(F)(F)F)c2c1)N1C2CCC1CC(C(=O)O)C2 (some centres undefined) [autotaxin-modulator-1] | 105% | 91.2% | 96.1% | 96.6% | 83.2% | 114% | 97.6% | 100% | 106% | 96.2% | 90.4% | 91% | 105% | 96% | 71.9% | 93.3% | 95.9% | 94.3% | 95.1% | 83.7% | 99.2% | 103% | 96.4% | 93.8% | 89% | > 10 µM | > 10 µM | > 10 µM | > 10 µM | 0.7 | 0 | 1.8 | 0.1 | 0 | 
2 | CCN1CCN(C(=O)N[C@@H](C(=O)N[C@@H]2C(=O)N3C(C(=O)O)=C(CSc4nnnn4C)CS[C@H]23)c2ccc(O)cc2)C(=O)C1=O [cefoperazone] | 98.5% | 107% | 102% | 100% | 99.6% | 89.8% | 101% | 97% | 97.1% | 102% |  |  |  |  |  |  |  |  |  |  | 96.7% | 104% | 99.5% | 106% | 98.4% | > 10 µM | > 10 µM |  | > 10 µM | 0 | 0 |  |  | 0 | 
3 | C[C@H]1[C@H](C)CC[C@]2(C(=O)O)CC[C@]3(C)C(=CC[C@@H]4[C@@]5(C)C[C@@H](O)[C@H](O)C(C)(C)[C@@H]5CC[C@]43C)[C@H]12 [corosolic-acid] | 107% | 110% | 102% | 108% | 99.6% | 96.8% | 106% | 103% | 95.3% | 99.8% |  |  |  |  |  |  |  |  |  |  | 101% | 104% | 99.7% | 104% | 103% | > 10 µM | > 10 µM |  | > 10 µM | 0 | 0 |  |  | 0 | 
4 | C=C1C[C@@]2(O)O[C@@]3(C[C@H]2C(C)C)[C@@H](C)CC[C@@H]13 [curcumol] | 108% | 95.3% | 93.6% | 97.3% | 103% | 96.4% | 107% | 111% | 101% | 106% |  |  |  |  |  |  |  |  |  |  | 100% | 101% | 97.1% | 91.9% | 102% | > 10 µM | > 10 µM |  | > 10 µM | 0 | 0 |  |  | 0 | 
5 | C[C@@H]1CCO[C@H]2Cn3cc(C(=O)NCc4ccc(F)cc4F)c(=O)c(O)c3C(=O)N12 [dolutegravir] | 102% | 94.4% | 97.6% | 97.7% | 88.2% | 117% | 113% | 101% | 91.1% | 105% | 101% | 114% | 107% | 100% | 57.6% | 104% | 103% | 104% | 95.6% | 98.5% | 97.3% | 99.7% | 97% | 100% | 81.9% | > 10 µM | > 10 µM | > 10 µM | > 10 µM | 0.1 | 0 | 2.1 | 0 | 0.4 | 
6 | CNC[C@H](O)c1ccc(O)c(O)c1 [epinephrine] | 93.7% | 105% | 86.3% | 98.5% | 90% | 101% | 110% | 111% | 111% | 97.3% | 108% | 106% | 104% | 94.4% | 57.5% | 96.9% | 101% | 98.2% | 104% | 105% | 93.3% | 89.7% | 95.1% | 89.6% | 111% | > 10 µM | > 10 µM | > 10 µM | > 10 µM | 0 | 0 | 3.1 | 0 | 0 | 
7 | COc1cc(/C=C/C(=O)O)ccc1O [ferulic-acid] | 99% | 97.8% | 96.4% | 92.2% | 103% | 93.8% | 98.6% | 103% | 95.6% | 94.2% |  |  |  |  |  | 97.8% | 102% | 99.9% | 99.3% | 101% | 94% | 107% | 94.5% | 96.2% | 107% | > 10 µM | > 10 µM | > 10 µM | > 10 µM | 0 | 0 |  | 0 | 0 | 
8 | NC(=O)c1ccc(I)c([N+](=O)[O-])c1 [iniparib] |  |  |  |  |  | 110% | 99% | 103% | 102% | 114% | 91.2% | 106% | 107% | 94.2% | 106% | 104% | 95.8% | 96.4% | 104% | 98.4% |  |  |  |  |  |  | > 10 µM | > 10 µM |  |  | 0 | 0 | 0 |  | > 10 µM
9 | O=C(O)c1nn(Cc2ccc(Cl)cc2Cl)c2ccccc12 [lonidamine] | 95.3% | 107% | 94.1% | 105% | 96.4% | 98.5% | 96.2% | 89.8% | 101% | 116% |  |  |  |  |  | 100% | 110% | 98% | 111% | 98% | 98.8% | 102% | 102% | 95.8% | 95.8% | > 10 µM | > 10 µM | > 10 µM | > 10 µM | 0 | 0 |  | 0 | 0 | 
10 | COc1ccc(C(C)=O)c(O)c1 [paeonol] | 96.6% | 96% | 103% | 96.5% | 110% | 95.6% | 95.9% | 91.2% | 99.8% | 105% |  |  |  |  |  | 95% | 96.8% | 95.8% | 95.8% | 97.7% | 95.4% | 98.7% | 96.9% | 94.1% | 106% | > 10 µM | > 10 µM | > 10 µM | > 10 µM | 0 | 0 |  | 0 | 0 | 
11 | NC(=S)N/N=C/c1ccncc1 [perchlozone] | 97.2% | 100% | 91.1% | 106% | 92.6% | 104% | 100% | 105% | 95.6% | 100% |  |  |  |  |  | 102% | 98.4% | 101% | 104% | 106% | 93.9% | 98.9% | 93.7% | 99.2% | 108% | > 10 µM | > 10 µM | > 10 µM | > 10 µM | 0 | 0 |  | 0 | 0 | 
12 | COc1ccc(-c2nc3cc(C4=NNC(=O)CC4C)ccc3[nH]2)cc1 (centres undefined) [pimobendan] | 106% | 104% | 98.4% | 96.4% | 80.7% | 98% | 85.8% | 112% | 95.8% | 90.8% | 120% | 113% | 103% | 105% | 59.5% | 107% | 105% | 103% | 97.7% | 84.7% | 105% | 110% | 99.2% | 101% | 92.7% | > 10 µM | > 10 µM | > 10 µM | > 10 µM | 1 | 0 | 1.7 | 0.5 | 0 | 
13 | O=C1c2ccccc2-c2n[nH]c3cccc1c23 [pyrazolanthrone] | 111% | 92.3% | 99.4% | 102% | 97.9% | 94.9% | 95.7% | 92.4% | 100% | 98.6% | 101% | 80.2% | 96.8% | 82.4% | 71.5% |  |  |  |  |  | 94.7% | 102% | 99.8% | 106% | 105% | > 10 µM | > 10 µM |  | > 10 µM | 0 | 0 | 3.3 |  | 0 | 
14 | Cc1cc(C)c(/C=C2\C(=O)Nc3ccccc32)[nH]1 [semaxanib] | 103% | 90.6% | 100% | 90.4% | 91.3% | 93.2% | 87.4% | 93.6% | 94.9% | 102% | 99% | 96.2% | 91% | 92% | 67.1% | 99.7% | 96.6% | 100% | 99.4% | 97.4% | 103% | 102% | 98.7% | 105% | 106% | > 10 µM | > 10 µM | > 10 µM | > 10 µM | 0 | 0 | 2.4 | 0 | 0 | 
15 | O=C1NCCN1CCN1CCC(c2cn(-c3ccc(F)cc3)c3ccc(Cl)cc23)CC1 [sertindole] | 97.1% | 98.3% | 89.1% | 80.7% | 56.6% | 88.1% | 112% | 96.9% | 92.2% | 90% | 96.7% | 105% | 93.4% | 87.7% | 20.9% | 93.8% | 95.3% | 94.6% | 99.8% | 81% | 106% | 118% | 105% | 88.6% | 64.5% |  | > 10 µM | > 10 µM |  | 4.6 | 0.1 | 6.4 | 0.5 | 3.3 | 1.95 µM
16 | CCC(CC)C(c1ccc(Nc2nc3ccccc3s2)cc1)n1cncn1 (centres undefined) [talarozole] | 94.1% | 104% | 96% | 103% | 67.8% | 100% | 104% | 103% | 109% | 104% | 92.3% | 92.5% | 104% | 102% | 63.7% | 104% | 104% | 101% | 102% | 93.3% | 108% | 101% | 99.3% | 99.1% | 105% |  | > 10 µM | > 10 µM | > 10 µM | 1.2 | 0 | 1.6 | 0 | 0 | 
